# In patent US6469027B1, “N-methyl-D-aspartate (NMDA) receptor blockers for the prevention of atherosclerosis” (The Board of Regents of the University of Nebraska, priority 1996, dated 2002):
# How the values were obtained:
# Format in all cases: cell-based, chicken
# N-VSMC = experiment: Cell proliferation (cell number) of N-VSMC cultures; conditions: 100 μM H[cys]; between day 6 and 10; 1% serum
# Experimental: FIGS. 5A and 5B are graphs illustrating cell growth and DNA synthesis of N-VSMC cultures. (A) Cells were cultured in M199 supplemented with 1% FBS in the presence and absence of 100 μM H[cys]. The medium was renewed every three days and cell numbers were determined by Coulter counter or emocytometer. Each point represents the mean of quadruplicate samples counted six times. (B) Cells were grown to confluency, growth arrested in M199 and 1 μg/ml of bovine serum albumin for two days. Cultures were exposed to various concentrations of H[cys] (0.01-1000 μM) for 30 h, pulse labeled for 6 h with 2 μCi/ml of [^3H]thymidine. The amount of [^3H]thymidine incorporation was determined by scintillation spectrophotometry. Results are shown as the mean of ±S.E.M.
# FIGS. 7A-7C are graphs illustrating the effect of H[cys] on diacylglycerol content in N-VSMC. (A) Time course of changes of membrane diacylglycerol content cell treated with 100μM H[cys] for the various times. Cells were recovered, membrane lipids extracted and diacylglycerol amounts determined as described in Methods. Results are expressed as the mean ± standard error of quadruplicate incubations from six independent experiments. (B) Effects of varying concentrations of H[cys] on diacylglycerol synthesis. Cells were treated for 30 min with different concentrations of H[cys] and membrane lipids were isolated and the diacylglycerol content determined. (C) Effect of PKC inhibitors on H[cys] mediated cell proliferation. N-VSMC cultures were grown in 1% FBS and 100 μM H[cys] in the presence and absence of staurosporine and cheleyrithrine chloride for the times (days-d) indicated. Cells were counted in quadruplicate in a Coulter counter every three days. Values represent the mean ±S.D. from four independent experiments.
# Smooth Muscle Culture: The thoracic (N) and abdominal (M) aorta of normal 16 and 18-day embryos were cleaned of fat, and the intima-media was isolated from the adventitia. The intima-media was enzymatically dispersed into a single cell suspensions by a combination of collagenase and elastase followed by trypsin. VSMC were placed in primary culture at a constant density of 2×10^4 cells/cm^2 in multiwell plates or 100 mm culture plates in Medium 199 supplemented with 10% fetal bovine serum (FMS) and 2 mM glutamine, in an atmosphere of 95% air: 5% Co2 at 37° C. Primary cultures were grown for 7 days before they were seeded into first passage at the same cell density and grown to confluence. Experiments were carried out between passages 3-6. Experimental conditions for all cells included 48 h in Medium 199 supplemented with 1% FBS prior to initiating and experiment.
# [1] = system: Thoracic aorta VSMC from E14 embryos; experiment: Intracellular Ca++ by Fura 2 fluorometry; conditions: 200 μM Hcy
# Experimental: FIGS. 8A and 8B are graphs illustrating E14 embryonic neural crest-derived response to Hcy. (A) Normal E14 cell response; (B) Ca++ influx is prevented by 15 min pretreatment with NMDA receptor blocker MK801, which acts at the NMDA receptor calcium channel.
# The most common signaling device for mitosis is calcium influx. Therefore, the inventors measured the change in intracellular Ca^++ by Fura 2 fluorometry. Thoracic aorta VSMC from E14 embryos were harvested and grown on coverslips using the procedure set forth above. Fura 2 was added during 45 minutes at room temperature. Then the cover slips were placed in a photometer. Fura 2 was excited at 350 and 380 nm with a xenon light source, appropriate monochromators and a chopper (Deltascan, Princeton). Emitted signals passed through a 510±20 band pass filter. When the cells were treated with a solution of 200 μM Hcy, there was a rapid flux of Ca^++ that reached a plateau in about 50 seconds, and remained elevated for the duration of the 500 sec measurement interval as shown in FIGS. 8A and 8B. Similar results have been found with adult rabbit aortic smooth muscle cells, as set forth below.
# protein kinase C = experiment: Distribution of protein kinase C activity in N-VSMC fractions; conditions: 100 μM H[cys] for 60 min
# Experimental: FIGS. 6A-6C show the distribution of protein kinase C in the presence of H[cys], TPA and TGF β1. […] Cells were harvested and separated into cytosol membrane particulate and nuclear fractions, and PKC activity measured as described in Material and Methods. The data are reported as the mean ± standard error of eight separate determinations. (B) Immunolocalization of PKC epsilon in M- and N-VSMC. Cell cultures were plated and grown for three days prior to immunohistochemistry staining of PKC epsilon in the N-VSM (bottom) contrasted with the low levels of expression of the enzyme in M-VSMC (top). The staining can be seen in cytosol, nucleus and associated with intracellular fibers. (C) Use of PKC epsilon IgG to detect enzyme in M- and N-VSMC by western blot. The C-lane represents purified recombinant PKC epsilon; M and N are samples derived from mesoderm (abdominal ) and neurocrest & (thoracic) smooth muscle cells, respectively.
# Protein kinase C activity: Protein kinase C activity was determined using a method of a previously published procedure with modifications. Wrenn, R.W. et al. (supra). […] Each of these fractions was analyzed for total PKC activity in the presence and absence of calcium chloride as described previously. […]
structure (smiles),measurement,setting,value
N[C@@H](CCS)C(=O)O [homocysteine],cell number increased,N-VSMC,9 fold
same,time for Ca++ flux to reach a plateau,[1],about 50 seconds
same,distribution of PKC activity,protein kinase C,significant increase in membrane-associated PKC
